Our source for the EC50 values is BindingDB's records for patent US20240101531 (Xenon Pharmaceuticals, 2024).

The target of this test is Potassium voltage-gated channel subfamily KQT member 2/3 (Homo sapiens, UniProt O43525+O43526). Description: In Vitro Assay. The source says:
This potassium flux assay employs the cell-permeable, potassium-sensitive dye, IPG-2 AM, to quantify potassium ion flux through potassium channels.In general, TREX HEK 293 or HEK 293 cells were stably transfected with either an inducible or non-inducible expression vector containing the full-length cDNA coding for the desired human KV7.2/KV7.3 or in combination with another full-length cDNA for a second desired human KV7 potassium channel. Potassium channel-expressing cell lines were induced with tetracycline (1 g/mL), if required, and plated on 384-well poly-D-lysine (PDL)-coated plates in culture media (DMEM, containing 10% FBS and 1% L-glutamine). After overnight incubation, culture media was removed and cells were loaded with 5 M IPG-2 AM dye for 1 hour in Assay buffer (140 mM NaCl, 20 mM RbCl, 2 mM CaCl2, 1 mM MgCl2, 10 mM HEPES (4-(2-hydroxyethyl)-1-piperazineethanesulfonic acid buffer), 10 mM glucose, adjusted with Tris to pH 7.4). Excess dye was removed, and cells incubated at room temperature for 20 minutes with or without test compound. […]

Where only a bound is given, the exact number is not on record here.

In general, EC50 refers to the concentration giving half of the maximal effect.

Sequence of Potassium voltage-gated channel subfamily KQT member 2/3 (O43526 whole entry): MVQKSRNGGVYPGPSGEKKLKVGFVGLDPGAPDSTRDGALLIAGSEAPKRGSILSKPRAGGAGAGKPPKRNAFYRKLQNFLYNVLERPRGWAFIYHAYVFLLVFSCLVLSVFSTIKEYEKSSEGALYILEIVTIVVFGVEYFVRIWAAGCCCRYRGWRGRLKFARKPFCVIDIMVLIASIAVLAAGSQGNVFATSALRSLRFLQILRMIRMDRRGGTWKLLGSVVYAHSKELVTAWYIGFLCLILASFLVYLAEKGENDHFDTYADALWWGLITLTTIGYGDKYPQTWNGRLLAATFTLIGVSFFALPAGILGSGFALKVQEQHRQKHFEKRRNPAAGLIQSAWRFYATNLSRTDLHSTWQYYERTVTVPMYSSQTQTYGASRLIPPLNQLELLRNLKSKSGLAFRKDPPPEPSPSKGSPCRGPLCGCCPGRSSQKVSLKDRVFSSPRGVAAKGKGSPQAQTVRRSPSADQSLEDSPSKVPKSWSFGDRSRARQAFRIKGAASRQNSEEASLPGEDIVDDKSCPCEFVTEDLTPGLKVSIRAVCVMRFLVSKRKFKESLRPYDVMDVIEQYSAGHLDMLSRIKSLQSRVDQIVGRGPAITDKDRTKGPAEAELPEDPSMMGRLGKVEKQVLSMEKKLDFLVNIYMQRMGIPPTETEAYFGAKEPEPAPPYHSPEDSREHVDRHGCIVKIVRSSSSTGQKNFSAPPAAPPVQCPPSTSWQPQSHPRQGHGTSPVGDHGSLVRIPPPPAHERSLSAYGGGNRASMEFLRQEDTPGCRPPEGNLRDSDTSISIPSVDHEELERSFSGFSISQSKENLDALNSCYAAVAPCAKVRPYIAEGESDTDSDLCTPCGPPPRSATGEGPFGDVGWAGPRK
Sequence of Potassium voltage-gated channel subfamily KQT member 2/3 (O43525 whole entry): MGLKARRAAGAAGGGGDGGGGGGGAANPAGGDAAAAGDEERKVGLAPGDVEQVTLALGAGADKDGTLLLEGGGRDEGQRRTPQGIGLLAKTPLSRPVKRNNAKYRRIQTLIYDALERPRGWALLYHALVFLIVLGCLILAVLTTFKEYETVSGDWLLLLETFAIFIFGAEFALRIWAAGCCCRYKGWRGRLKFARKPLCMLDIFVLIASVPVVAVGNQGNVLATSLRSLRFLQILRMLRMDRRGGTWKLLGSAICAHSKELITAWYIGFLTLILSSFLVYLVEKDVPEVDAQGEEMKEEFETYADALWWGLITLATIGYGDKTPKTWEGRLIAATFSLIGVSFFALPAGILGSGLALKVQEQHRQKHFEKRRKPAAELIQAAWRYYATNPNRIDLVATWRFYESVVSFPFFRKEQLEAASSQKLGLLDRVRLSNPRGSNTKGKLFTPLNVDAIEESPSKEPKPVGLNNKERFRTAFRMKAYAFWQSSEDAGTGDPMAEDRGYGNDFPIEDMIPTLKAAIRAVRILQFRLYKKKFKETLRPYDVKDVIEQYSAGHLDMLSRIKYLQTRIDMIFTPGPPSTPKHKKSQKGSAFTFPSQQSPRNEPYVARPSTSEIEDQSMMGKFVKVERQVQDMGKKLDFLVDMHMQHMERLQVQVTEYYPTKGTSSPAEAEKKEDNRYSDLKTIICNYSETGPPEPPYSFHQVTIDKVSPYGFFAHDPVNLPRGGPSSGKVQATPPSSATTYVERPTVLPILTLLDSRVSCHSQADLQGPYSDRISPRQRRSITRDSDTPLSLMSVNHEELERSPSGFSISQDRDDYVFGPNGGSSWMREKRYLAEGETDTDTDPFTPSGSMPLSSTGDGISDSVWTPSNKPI

Consider `CC1(C)CC1(C#N)COc1ccc2c(Nc3ccc(Cl)nc3)nccc2c1` (stereo unspecified) [US20240101531, Example 330], for which the half-maximal effective concentration (EC50) is less than 1000 nM.
